Key:
[1] = SSSE after brief electrical stimulation of the perforant path (EEG monitoring for 24 hrs); assay type: in vivo, male Wistar rats; conditions: for cumulative seizure duration over the 24h period / time to the last seizure: Experiment 1a: 60 minutes stimulation, i.v. 10 min after end of perforant path stimulation, SPM 927 50 mg/kg, PHT 50 mg/kg, DZP 10 mg/kg, compared to control animals (Fig. 1); for time after injection within which seizures stopped: 50 mg/kg i.v. (fosphenytoin: phenytoin equivalent) 10 min after end of stimulation (Fig. 2A); for Spike frequency (number of spikes/10 min): 50 mg/kg i.v., vs control animals (Fig. 2B)
Description: (§1) Animals: The experiments were performed on male Wistar rats, 280-300g (Simonsen Labs, CA). Animals were kept at a constant room temperature with 12 hours artificial dark-light cycle with free access to standard diet and tap water.
Surgery: Under ketamine (60 mg/kg)/xylazine (15 mg/kg) anesthesia, animals were implanted with a bipolar stimulating electrode into the angular bundle of the perforant path (4.5 mm to left lambda, 1 mm anterior to lambdoid fissure) and a bipolar recording electrode into the granule cell layer of the ipsilateral dentate gyrus (3.5 mm anterior to lambda, 2.2 mm left to saggital fissure). Depth of both electrodes was optimized by monitoring the amplitude and waveform of the population spike evoked from the dentate gyrus by stimuli delivered through the perforant path (single square wave monophasic stimuli, 20 V, 0.1 ms delivered every 10 s).
Induction of self-sustaining status epilepticus (SSSE): Seven days after surgery, animals were connected to a Cardionics 16 channel preamplifier, which was connected to the IBM computer. After 5 minutes of baseline EEG recording, animals were stimulated in the awake state for 60 minutes (Experiment 1 a) or 30 minutes (Experiments 1b and 1 c) with 10 s 20 Hz trains (1 ms square wave, 20 V) delivered every minute, together with 2 Hz continuous stimulation with the same parameters.
EEG monitoring and analysis: EEG from the dentate gyrus was monitored and recorded by means of commercial software (Monitor 8.1 from Stellate Systems). The software was configured for automatic detection and saving of spikes and seizures. Monitoring was performed for 24 hrs. EEG was analyzed off line by means of the same software. Spike distribution was presented as number of spikes per 10 min epoch, and the cumulated duration of seizures for 24 hrs of monitoring were calculated. Statistical analysis was performed by means of T-test. A p value less than 0.05 was considered statistically significant.
Drug administration: SPM 927 (50 mg/kg, 5 animals), phenytoin (PHT) (50 mg/kg), Fosphenytoin (F-PTH Porte-Davis, 50 mg/kg of phenytoin equivalent, 5 animals), diazepam (DZP) (10mg/kg) or vehicle (VEH, 10% DMSO, 6 animals) were given i.v. 10 min after the end of perforant path stimulation in a volume of 1 ml/kg.

[2] = Hippocampal damage following SSSE (count of damaged neurons in brain sections, light microscopy); assay type: in vivo, male Wistar rats
Description: as §1
Surgery: Under ketamine (60 mg/kg)/xylazine (15 mg/kg) anesthesia, animals were implanted with a bipolar stimulating electrode into the angular bundle of the perforant path (4.5 mm to left lambda, 1 mm anterior to lambdoid fissure) and a bipolar recording electrode into the granule cell layer of the ipsilateral dentate gyrus (3.5 mm anterior to lambda, 2.2 mm left to saggital fissure). […]
Selection of sections for counting: Selection of sections for counting was controlled by the stereotaxic atlas for rats (Paxinos and Watson). The 3 sections selected for quantitation contained dorsal hippocampus and were 1.6 ±0.05mm posterior to bregma.
Location of counting fields ― damage to the pyramidal cell layer was assessed by counting damaged neurons in the subiculum, CA1, CA3, CA3c and the hilus in the dorsal hippocampus. The neurons were assessed individually from the beginning of the subiculum to the end of the CA3c region using an Olympus Provis Ax 70 microscope at a magnification of 40x. […]
Criteria for differentiation of damaged versus non-damaged neurons - neurons were counted only if the majority of the nucleus was present in the section. […]

[3] = Chemically induced SSSE (cobalt/homocysteine model, homocysteine thiolactone injection); assay type: in vivo, Male Sprague-Dawley rats
Description: Male Sprague-Dawley rats were prepared surgically with cobalt powder on the left frontal cortical surface.
Recording and stimulation protocol: four epidural recording electrodes arranged in a square grid (5mm) over the cobalt lesion. EEG was monitored daily beginning 4-5 days following surgery. Status epilepticus was induced by i.p. injection of 5.5mmol/kg homocysteine thiolactone whenever focal motor behaviour and EEG seizures were observed.
Drug administration: SPM 927 was administered (10-100mg/kg) immediately following the second generalized tonic-clonic seizure (GTCS) occurring after homocysteine thiolactone injection.

[4] = Experiment 1b: 30 minutes stimulation
[5] = SPM 927 10-100mg/kg immediately following the second GTCS, 30 min following treatment

Row | SMILES | cumulative seizure duration over the 24h period [1] | time to the last seizure [1] | time after injection within which seizures stopped [1, 4] [min] | Spike frequency (number of spikes/10 min) [1, 4] | efficacy on both parameters (cumulative seizure duration, time to the last seizure) when compared to DZP and PHT ([1]; Experiment 1a, SPM 927 50 mg/kg i.v. vs DZP 10 mg/kg and PHT 50 mg/kg (Fig. 1)) | recurrence of seizures over the next 24 hrs ([1]; Experiment 1b: 30 minutes stimulation, 50 mg/kg i.v. (Fig. 2A)) | time for which only a few single spikes were recorded ([1]; Experiment 1b: 30 minutes stimulation, 50 mg/kg i.v. (Fig. 2B)) | injured neurons in hippocampal fields ([2]; Experiment 1c: 30 minutes stimulation, SPM 927 50 mg/kg i.v., brains collected 72 hours after SSSE, subiculum, CA1, CA3, CA3c, hilus) | protection against neuronal injury, statistical significance ([2]; Experiment 1c, vs untreated rats, by hippocampal field) | latency to the first GTCS [3, 5] | mean number of GTCS [3, 5] | number of rats experiencing GTCS ([3]; SPM 927 10-100mg/kg immediately following the second GTCS, observed 30 min following treatment) | GTCS at the highest dose ([3]; highest dose of SPM 927 (range 10-100mg/kg), 30 min following treatment)
1 | CN1C(=O)CN=C(c2ccccc2)c2cc(Cl)ccc21 [DZP, diazepam, reference compound] | potently and significantly reduced | potently and significantly reduced | – | – | – | – | – | – | – | – | – | – | –
2 | O=C1NC(c2ccccc2)(c2ccccc2)C(=O)N1COP(=O)(O)O [Fosphenytoin, reference compound] | – | – | ≤ 15 | significantly lower than in control animals but significantly higher than in SPM 927 treated rats | – | – | – | – | – | – | – | – | –
3 | O=C1NC(=O)C(c2ccccc2)(c2ccccc2)N1 [PHT, phenytoin, reference compound] | potently and significantly reduced | potently and significantly reduced | – | – | – | – | – | – | – | – | – | – | –
4 | COC[C@@H](NC(C)=O)C(=O)NCc1ccccc1 [SPM 927, (R)-2-acetamide-N-benzyl-3-methoxypropionamide] | potently and significantly reduced | potently and significantly reduced | ≤ 15 | significantly decreased | somewhat more efficacious | did not recur | about 12 hrs | only an occasional injured neuron in any hippocampal field | statistically significant in the subiculum, CA1 and CA3 | prolonged | potently reduced | reduced in a dose-dependent fashion | completely abolished all GTCS

— patent EP1541138A1, “Novel use of peptide compounds for treating status epilepticus or related conditions” (SCHWARZ PHARMA AG, priority 2003, dated 2005)
